# Reference: patent US20160175457A1, “OCULAR DEVICE” (DSM IP ASSETS B.V., priority 2013, published 2016)
# “Also recorded” adds a separate entry of the source. Read-outs that look alike come from different tables or passages of the source. No end group written: not given here.
# T1: peptide Gly-Pro-Leu-Ala-Leu-Leu-Ala-Gln (GPLALLAQ)
# T1 sequence: GPLALLAQ
# T2: peptide Leu-Leu-Leu-Ala-Ala-Gly (LLLAAG)
# T2 chain: LLLAAG
# T3: hyaluronic acid-peptide-HEMA conjugate (hyaluronic acid-Leu-Leu-Leu-Ala-Ala-Gly-HEMA)
# T3 chain: LLLAAG
# T4: peptide Gly-Pro-Leu-Ala-Leu-Leu-Ala-Gln (GPLALLAQ)
# T4 chain: GPLALLAQ
# Columns and labels:
# [1] = test system: proteinases present in tear fluid (contact lens rinsing liquid); assay: Incubation of synthetic peptides with tear fluid / contact lens rinsing liquid, cleavage followed by mass spectrometry; assay type: biochemical, human; settings: for endoproteolytic cleavage after Arg or Val by tear fluid / proteolytic cleavage observed after incubation with tear fluid (rinsing fluid): 162 hours (FIG. 2) / 165 hours at 25 degrees C.
# Method: (§1) Stock solutions (1 mg/ml in 5% acetonitrile) were prepared from the synthetic peptide substrates. The stock solutions are optionally 10× diluted with MilliQ water prior to incubation. Elastase (Sigma #: E7885), Tryptase (Sigma #: T7063), or tear fluid were added to the diluted substrate solutions and incubation was performed at 25° C. Aliquots of 20 μl were taken at several time points to monitor substrate degradation.
# (§2) The aliquots were 10× diluted in 50% acetonitrile, 0.1% formic acid prior to analysis. Mass Spectrometric (MS) analysis was performed by infusion in the LTQ-Orbitrap Fourier Transform Mass Spectrometer (Thermo Fisher, Bremen, Germany). Infusion was performed by mixing 10 μl min^−1 of sample in a 200 μl min^−1 flow of 50% acetonitrile, 0.1% formic acid. The MS analysis was performed in the Orbitrap scanning at 7500 resolution using 200-1600 m/z mass range. Proteolytic activity during the different incubations of the synthetic peptides substrates was studied by manual inspection of the MS data using the Qual browser in the XCalibur software (Thermo Fisher, Bremen, Germany).
# Contact lens wearing subjects were invited to participate at the end of their working day. Using sterilized gloves, lenses were removed and the inner surface of each lens was rinsed with 250 microliter of sterilized water. Then 100 microliter samples of the rinsing liquid were incubated overnight at 25 degrees C. with 100 μl of a 1.0 mg/ml BODIPY TR-X casein solution (EnzChek Protease Assay kit ‘Red fluorescence’; Molecular Probes, Eugene, Oreg., USA). Throughout the incubation the fluorescence of the samples was measured every minute (kinetic measurement) according to the EnzChek kit protocol (excitation=590±10 nm, emission=645±20 nm) using a Tecan Infinite M1000 microtiterplate reader (Männedorf, Switzerland).
# After its purification, the peptide was incubated with contact lens rinsing liquid (cf. Example 1) of a single individual and incubated over the weekend at 25° C. Then samples of the incubation liquid were subjected to mass spectrometry to confirm cleavage. […] An incubation of the peptide with human leukocyte elastase (Sigma Aldrich) yielded GPLALL and AQ as the major cleavage products. An incubation of the peptide with human lung tryptase (also from Sigma Aldrich) yielded GPLAL/LAQ as the major cleavage products (see FIG. 1). The latter observations indicate that a peptide incorporating aliphatic hydrophobic residues like Ala and Leu support cleavage by human, tryptase- and elastase-like enzymes.
# In this Example we test the cleavage activity of tear fluid on two, slightly different synthetic peptides. The first peptide comprises Arg as a charged, basic residue (Ala-Ala-Pro-Arg-Ala-Ala-Arg-Gln, AAPRAARQ (SEQ ID NO: 4)) in order to facilitate cleavage by trypsin-like endoproteases. The second peptide comprises the medium sized aliphatic hydrophobic residue Val instead of Arg (Ala-Ala-Pro-Val-Ala-Ala-Arg-Gln, AAPVAARQ (SEQ ID NO: 5)) in order to facilitate cleavage by elastase-like endoproteases. The experiment was executed essentially as described in Example 2, but in this case tear fluid of four different individuals was obtained and incubated for 165 hours at 25 degrees C. Samples of the incubation liquid were again subjected to mass spectrometry.
# human leukocyte elastase = assay: Incubation of synthetic peptides with human leukocyte elastase, mass spectrometry; assay type: biochemical
# Method: as §1, §2
# (§3) After its purification, the peptide was incubated with contact lens rinsing liquid (cf. Example 1) of a single individual and incubated over the weekend at 25° C. Then samples of the incubation liquid were subjected to mass spectrometry to confirm cleavage. […]
# human lung tryptase = assay: Incubation of synthetic peptide with human lung tryptase, mass spectrometry; assay type: biochemical; settings: 25° C., overnight (FIG. 1)
# Method: as §1, §2, §3
# [2] = test system: T1, peptide Gly-Pro-Leu-Ala-Leu-Leu-Ala-Gln (GPLALLAQ)
# [3] = test system: proteinases in contact lens rinsing liquid (tear fluid); assay: Incubation of hyaluronic acid-peptide-HEMA conjugate with lyophilized contact lens rinsing liquid, LC-MS of peptide-HEMA fragments; assay type: biochemical, human; settings: 35 hours at 35° C., rinsing liquid of five individuals (hard and soft lenses)
# From the text: (§4) To cope with this experimental difficulty, we decided to focus on the identification of Peptide-HEMA fragments that can be expected to be released from the hyaluronic acid-peptide-HEMA conjugate upon exposure to a suitable proteolytic activity. On the basis of peptide hydrolysis data gathered in Examples 2 and 5, peptide Leu-Leu-Leu-Ala-Ala-Gly (LLLAAG) was synthesized and used to prepare a hyaluronic acid-peptide-HEMA conjugate (Example 6).
# Rinsing liquid was collected from 5 individuals, two wearing hard lenses and three wearing soft lenses, at the end of the working day over multiple days. The lenses were collected using sterile nitrile gloves and rinsed with 200 μl MilliQ water on a flat glass microscope slide (Thermo Scientific) containing Grace Bio-labs Press-to-Seal silicone isolator, No PSA (Sigma Aldrich GBL664504-25EA). The rinse liquid was transferred to a Protein LoBind Tube 2.0 ml (Eppendorf) using Maxymum Recovery pipette tips (Axygen scientific). The rinse liquid was frozen at −80° C. as soon as possible. Rinsing fluid was lyophilized overnight when >1.5 ml rinsing liquid was collected for each individual.
# Hyaluronic acid-peptide-HEMA conjugates are too heterologous in mass to be directly detected by MS. […]
# The conjugate (Example 6) was dissolved in 50 mM ammonium acetate buffer at 0.2 mg/ml and analyzed by 25 μl injections on the LC-MS system. […]
# human elastase = assay: Incubation of hyaluronic acid-peptide-HEMA conjugate with human elastase preparation, LC-MS; assay type: biochemical; settings: 35° C., data not shown
# Method: as §4
# The conjugate (Example 6) was dissolved in 50 mM ammonium acetate buffer at 0.2 mg/ml and analyzed by 25 μl injections on the LC-MS system. The LC-MS system consisted of an Accela UHPLC (Thermo Fisher, Bremen, Germany) coupled to the LTQ-Orbitrap Fourier Transform Mass Spectrometer. The column used was a ZORBAX Rapid Resolution HT SB-C18, 2.1×50 mm, 1.8 μm (Agilent 827700-902). The autosampler was set to 35° C. for incubation of the samples and the column oven was set to 50° C. The analytes in the samples were separated using a flow of 0.8 ml min^−1 and the following gradient was used: […]
# 0-0.2 min 2.5% B, 0.2-2 min 2.5-30% B, 2-2.5 min 30-80% B, 2.5-3 min 80% B, 3.01-5 min 2.5% B, where buffer A is 0.1% Formic Acid in Water (Biosolve, LC-MS grade) and buffer B is 0.1% Formic Acid in Acetonitrile (Biosolve, LC-MS grade). The MS was scanning at 7500 resolution m/z 150-800. […]
# [4] = target: T2, peptide Leu-Leu-Leu-Ala-Ala-Gly (LLLAAG)
# [5] = target: T3, hyaluronic acid-peptide-HEMA conjugate …
# [6] = target: T4, peptide Gly-Pro-Leu-Ala-Leu-Leu-Ala-Gln …
molecule,measurement,setting,value
"AAPRAARQ (peptide sequence cleavable by proteinases present in tear fluid) [Ala-Ala-Pro-Arg-Ala-Ala-Arg-Gln, synthetic test peptide comprising Arg as a charged, basic residue]",endoproteolytic cleavage after Arg or Val by tear fluid,[1],Hydrolysis of peptide bonds involving Arg (R) is not observed
same,proteolytic cleavage observed after incubation with tear fluid (rinsing fluid),[1],only showing cleavage at the N-terminal Ala
"AAPVAARQ (peptide sequence cleavable by proteinases present in tear fluid) [Ala-Ala-Pro-Val-Ala-Ala-Arg-Gln, synthetic test peptide comprising Val instead of Arg]",endoproteolytic cleavage after Arg or Val by tear fluid,[1],Cleavage C-terminal of Val does not occur
same,proteolytic cleavage observed after incubation with tear fluid (rinsing fluid),[1],hydrolysis of the peptide bond between Pro and Val
"GPLALLAQ (peptide sequence cleavable by proteinases present in tear fluid) [Gly-Pro-Leu-Ala-Leu-Leu-Ala-Gln, linker test peptide cleavable by tear fluid proteinases]",cleavage products identified after incubation with contact lens rinsing liquid (tear fluid),"[1]; rinsing liquid of a single individual, over the weekend at 25° C.","GPLAL and LAQ, GPL and ALLAQ and GPLA and LLAQ"
same,major cleavage products after incubation with human leukocyte elastase,"human leukocyte elastase; 25° C., 30 minutes (FIG. 1)",GPLALL and AQ
same,major cleavage products after incubation with human lung tryptase,human lung tryptase,GPLAL/LAQ
LLLAAG,conversion of intact peptide by elastase (digestion pattern),"human leukocyte elastase; overnight at room temperature, 50 mM ammonium acetate buffer",converted to fragment Leu-Leu-Leu-Ala (LLLA); also recorded: completely converted to LLLA
human lung tryptase,peptide cleavage products by mass spectrometry,[2],yielded GPLAL/LAQ as the major cleavage products
"hyaluronic acid-peptide-HEMA conjugate: conjugate of hyaluronic acid with NH2-Leu-Leu-Leu-Ala-Ala-Gly hexapeptide and HEMA (hydroxyethyl methacrylate) (LLLAAG; not fully specified (N-terminus, C-terminus); printed as Leu-Leu-Leu-Ala-Ala-Gly; also: conjugate with hyaluronic acid and HEMA, attachment not given here)",peptide-HEMA fragments formed upon incubation with concentrated (lyophilized) contact lens rinsing liquid,[3],formation of various peptide-HEMA fragments; also recorded: is able to cleave the peptide of the hyaluronic acid-peptide-HEMA conjugate; also recorded: LAAG-HEMA
same,peptide-HEMA fragments formed upon incubation with elastase,human elastase,formation of the expected AG-HEMA fragment
human leukocyte elastase (protein) IVGGRRARPHAWPFMVSLQLRGGHFCGATLIAPNFVMSAAHCVANVNVRAVRVVLGAHNLSRREPTRQVFAVQRIFENGYDPVNLLNDIVILQLNGSATINANVQVAQLPAQGRRLGNGVQCLAMGWGLLGRNRGIASVLQELNVTVVTSLCRRSNVCTLVRGRQAGVCFGDSGSPLVCNGLIHGIASFVRGGCASGLYPDAFAPVAQFVNWIDSIIQ,peptide cleavage products by mass spectrometry,[4],precursor peptide Leu-Leu-Leu-Ala-Ala-Gly (LLLAAG) was converted to fragment Leu-Leu-Leu-Ala (LLLA)
same,peptide-HEMA fragments by LC-MS,[5],showed the formation of the expected AG-HEMA fragment
same,peptide cleavage products by mass spectrometry,[6],yielded GPLALL and AQ as the major cleavage products
